According to patent publication US11345694B2, “Antibacterial compounds” (DISCUVA LTD., priority 2017, dated 2022):
Values after ≈ are worked out from the molar mass of the structure shown.

Columns and labels:
[1] = system: K. pneumoniae NCTC 13438 (KP1); assay: MIC broth microdilution; assay type: cell-based, Klebsiella pneumoniae; conditions: Klebsiella pneumoniae, NCTC13438
Experimental: (§1) Minimum Inhibitory Concentrations (MICs) versus planktonic bacteria are determined by the broth microdilution procedure according to the guidelines of the Clinical and Laboratory Standards Institute (Clinical and Laboratory Standards Institute. Methods for Dilution Antimicrobial Susceptibility Tests for Bacteria That Grow Aerobically; Approved Standard-tenth Edition. CLSI document M07-A10, 2015). The broth dilution method involves a two-fold serial dilution of compounds in 96-well microtitre plates, giving a final concentration range of 0.39-200 μM and a maximum final concentration of 2% DMSO. The bacterial strains tested include Escherichia coli K12 (EC), E. coli NCTC 13441 (UPEC), Staphylococcus aureus ATCC 35556 (SA), Acinetobacter baumannii ATCC 17978 (AB), Pseudomonas aeruginosa ATCC 33359 (PA), Enterobacter cloacae DSM 30054 (Ed), Serratia marcescens SL1344 (Sm), Salmonella typhimurium XNAA5 (St), Klebsiella pneumoniae ATCC 10031 (KP2), K. pneumoniae NCTC 13438 (KP1), K. pneumoniae ATCC 700603 (KP3), Klebsiella pneumoniae ATCC 51504 (KP4), K. pneumoniae H154680676 (KP5), K. pneumoniae H154020667 (KP6), K. pneumoniae H154640784 (KP7), K. pneumoniae H154600588 (KP8), K. pneumoniae H154300688 (KP9), K. pneumoniae H151440671 (KP10). Strains are grown in cation-adjusted Müller-Hinton broth or on Luria Bertoni agar at 37° C. in an ambient atmosphere. The MIC is determined as the lowest concentration of compound that inhibits growth following a 20-24 hour incubation period.

[2] = system: E. coli NCTC 13441 (UPEC); assay: MIC broth microdilution; assay type: cell-based, Escherichia coli; conditions: Escherichia coli, NCTC13441
Experimental: as §1

[3] = system: Acinetobacter baumannii ATCC 17978 (AB); assay: MIC broth microdilution; assay type: cell-based; conditions: ATCC17978
Experimental: as §1

[4] = system: Klebsiella pneumoniae ATCC 10031 (KP2); assay: MIC broth microdilution; assay type: cell-based; conditions: ATCC10031
Experimental: as §1

[5] = system: Pseudomonas aeruginosa ATCC 33359 (PA); assay: MIC broth microdilution; assay type: cell-based; conditions: ATCC33359
Experimental: as §1

[6] = system: Staphylococcus aureus ATCC 35556 (SA); assay: MIC broth microdilution; assay type: cell-based; conditions: ATCC35556
Experimental: as §1

[7] = system: Escherichia coli K12 (EC); assay: MIC broth microdilution; assay type: cell-based
Experimental: as §1

[8] = system: human hepatocarcinoma cell line ATCC HB-8065 (HepG2); assay: Human cell viability (CellTiter-Glo); assay type: cell-based; conditions: Homo sapiens; HepG2 cells, 24 h incubation, CellTiter-Glo luminescence, 0.2-100 μM; read-out: IC50 values against the HepG2 cell line
Experimental: Compounds are assessed for potential non-specific cytotoxic effects against the human hepatocarcinoma cell line ATCC HB-8065 (HepG2). HepG2 cells are seeded at 20,000 cells/well in 96-well microtitre plates in minimal essential medium (MEM) supplemented with a final concentration of 10% FBS. After 24 h, compound dilutions are prepared in MEM supplemented with a final concentration of 1% FBS, and added to the cells. Compounds are tested in two-fold serial dilutions over a final concentration range of 0.2-100 μM in a final DMSO concentration of 1% vol/vol. Thioridazine is used as a positive control. Cells are incubated with compound at 37° C. and 5% CO2 for a further 24 h, after which time the CellTiter-Glo reagent (Promega) is added. Luminescence is measured on a Perkin Elmer Envision plate reader. Data are analysed using a 4 parameter logistic regression to determine the concentration of compound that inhibits cell viability by fifty percent (IC50).

| MIC [1] [µM] | MIC [2] [µM] | MIC [3] [µM] | MIC [4] [µM] | MIC [5] [µM] | MIC [6] [µM] | MIC [7] [µM] | IC50 [8] [µM] | SMILES |
| --- | --- | --- | --- | --- | --- | --- | --- | --- |
| 1 to 10 (≈ 0.321 to 3.21 µg/mL) | 1 to 10 (≈ 0.321 to 3.21 µg/mL) | > 100 | ≤ 1 | > 100 | > 100 | 1 to 10 (≈ 0.321 to 3.21 µg/mL) | > 100 | Cc1cc(-c2[nH]c(N)nc2-c2ccc3c(c2)NCC(C)O3)ccn1 (stereo not drawn) [Example 34, 4-(2-Methyl-3,4-dihydro-2H-benzo[b][1,4]oxazin-6-yl)-5-(2-methylpyridin-4-yl)-1H-imidazol-2-amine] |
| 1 to 10 (≈ 0.278 to 2.78 µg/mL) | ≤ 1 | > 100 | ≤ 1 | > 100 | > 100 | ≤ 1 | > 100 | Nc1nc(-c2ccc3c(c2)CCO3)c(-c2ccncc2)[nH]1 [Example 38, 4-(2,3-Dihydrobenzofuran-5-yl)-5-(pyridin-4-yl)-1H-imidazol-2-amine] |
| 10 to 100 (≈ 3.39 to 33.9 µg/mL) | 1 to 10 (≈ 0.339 to 3.39 µg/mL) | > 100 | ≤ 1 | > 100 | > 100 | 1 to 10 (≈ 0.339 to 3.39 µg/mL) | > 100 | Cc1cc(-c2[nH]c(N)nc2-c2cc3c(cc2F)OCC(=O)N3)ccn1 [Example 54, 6-(2-Amino-5-(2-methylpyridin-4-yl)-1H-imidazol-4-yl)-7-fluoro-2H-benzo[b][1,4]oxazin-3(4H)-one] |
| 10 to 100 (≈ 3.65 to 36.5 µg/mL) | 1 to 10 (≈ 0.365 to 3.65 µg/mL) | > 100 | ≤ 1 | > 100 | > 100 | 1 to 10 (≈ 0.365 to 3.65 µg/mL) | > 100 | Cc1cc(-c2[nH]c(N)nc2-c2ccc3c(c2)N(CCO)C(=O)CO3)ccn1 [Example 66, 6-(2-Amino-4-(2-methylpyridin-4-yl)-1H-imidazol-5-yl)-4-(2-hydroxyethyl)-2H-benzo[b][1,4]oxazin-3(4H)-one] |
| 1 to 10 (≈ 0.351 to 3.51 µg/mL) | ≤ 1 | > 100 | ≤ 1 | > 100 | > 100 | 1 to 10 (≈ 0.351 to 3.51 µg/mL) | > 100 | Cc1cc(-c2nc(N)[nH]c2-c2ccc3c(c2)N(CCO)CCO3)ccn1 [Example 90, 2-(6-(2-Amino-4-(2-methylpyridin-4-yl)-1H-imidazol-5-yl)-2,3-dihydro-4H-benzo[b][1,4]oxazin-4-yl)ethan-1-ol] |
| ≤ 1 | ≤ 1 | > 100 | ≤ 1 | > 100 | > 100 | ≤ 1 | > 100 | Cc1cc(-c2[nH]c(N)nc2-c2ccc3c(c2)N(CCN)CCO3)ccn1 [Example 91, 4-(4-(2-Aminoethyl)-3,4-dihydro-2H-benzo[b][1,4]oxazin-6-yl)-5-(2-methylpyridin-4-yl)-1H-imidazol-2-amine] |
| > 100 | 10 to 100 (≈ 3.09 to 30.9 µg/mL) | > 100 | ≤ 1 | > 100 | > 100 | 10 to 100 (≈ 3.09 to 30.9 µg/mL) |  | Cc1cc(-c2[nH]c(=O)[nH]c2-c2ccc3c(c2)OCCO3)ccn1 [Example 82, 4-(2,3-Dihydrobenzo[b][1,4]dioxin-6-yl)-5-(2-methylpyridin-4-yl)-1,3-dihydro-2H-imidazol-2-one] |
| 10 to 100 (≈ 3.63 to 36.3 µg/mL) | 1 to 10 (≈ 0.363 to 3.63 µg/mL) | > 100 | ≤ 1 | > 100 | > 100 | 1 to 10 (≈ 0.363 to 3.63 µg/mL) |  | Cc1cc(-c2[nH]c(N)nc2-c2ccc3c(c2)N(C(C)C)C(=O)CO3)ccn1 [Example 68, 6-(2-Amino-4-(2-methylpyridin-4-yl)-1H-imidazol-5-yl)-4-isopropyl-2H-benzo[b][1,4]oxazin-3(4H)-one] |
| > 100 | > 100 | > 100 | > 100 | > 100 | > 100 | > 100 |  | Cc1cc(-c2c(-c3ccc4c(c3)OCCO4)nc(N)n2C)ccn1 [Example 73, 4-(2,3-dihydrobenzo[b][1,4]dioxin-6-yl)-1-methyl-5-(2-methylpyridin-4-yl)-1H-imidazol-2-amine] |
| > 100 | 10 to 100 (≈ 2.95 to 29.5 µg/mL) | > 100 | 1 to 10 (≈ 0.295 to 2.95 µg/mL) | > 100 | > 100 | 10 to 100 (≈ 2.95 to 29.5 µg/mL) |  | Nc1nc(-c2ccncn2)c(-c2ccc3c(c2)OCCO3)[nH]1 [Example 30] |
| 10 to 100 (≈ 3.95 to 39.5 µg/mL) | 1 to 10 (≈ 0.395 to 3.95 µg/mL) | > 100 | ≤ 1 | > 100 | > 100 | 1 to 10 (≈ 0.395 to 3.95 µg/mL) |  | Cc1cc(-c2[nH]c(N)nc2-c2ccc3c(c2)N(CCOCCO)CCO3)ccn1 [Example 95, 2-(2-(6-(2-Amino-5-(2-methylpyridin-4-yl)-1H-imidazol-4-y1)-2,3-dihydro-4H-benzo[b][1,4]oxazin-4-yl)ethoxy)ethan-1-ol] |
| 10 to 100 (≈ 3.21 to 32.1 µg/mL) | 1 to 10 (≈ 0.321 to 3.21 µg/mL) | > 100 | ≤ 1 | > 100 | > 100 | 1 to 10 (≈ 0.321 to 3.21 µg/mL) |  | CNc1nc(-c2ccc3c(c2)NCCO3)c(-c2ccnc(C)c2)[nH]1 [Example 78, 4-(3,4-Dihydro-2H-benzo[b][1,4]oxazin-6-yl)-N-methyl-5-(2-methylpyridin-4-yl)-1H-imidazol-2-amine] |
| 10 to 100 (≈ 3.89 to 38.9 µg/mL) | 1 to 10 (≈ 0.389 to 3.89 µg/mL) | > 100 | ≤ 1 | > 100 | > 100 | 1 to 10 (≈ 0.389 to 3.89 µg/mL) |  | Cc1cc(-c2[nH]c(N)nc2-c2ccc3c(c2)N(C2CCCC2)C(=O)CO3)ccn1 [Example 69, 6-(2-Amino-4-(2-methylpyridin-4-yl)-1H-imidazol-5-yl)-4-cyclopentyl-2H-benzo[b][1,4]oxazin-3(4H)-one] |
| > 100 | > 100 | > 100 | 1 to 10 (≈ 0.294 to 2.94 µg/mL) | > 100 | > 100 | > 100 |  | Nc1nc(-c2ccc3c(c2)OCCO3)c(-c2cccnc2)[nH]1 [Example 22, 4-(2,3-Dihydrobenzo[b][1,4]dioxin-6-yl)-5-(pyridin-3-yl)-1H-imidazol-2-amine] |
| > 100 | > 100 | > 100 | 1 to 10 (≈ 0.35 to 3.5 µg/mL) | > 100 | > 100 | > 100 |  | CC(=O)Nc1nc(-c2ccc3c(c2)OCCO3)c(-c2ccnc(C)c2)[nH]1 [Example 72, N-(4-(2,3-Dihydrobenzo[b][1,4]dioxin-6-yl)-5-(2-methylpyridin-4-yl)-1H-imidazol-2-yl)acetamide] |
| 10 to 100 (≈ 3.75 to 37.5 µg/mL) | 1 to 10 (≈ 0.375 to 3.75 µg/mL) | > 100 | ≤ 1 | > 100 | > 100 | 1 to 10 (≈ 0.375 to 3.75 µg/mL) |  | Cc1cc(-c2[nH]c(N)nc2-c2ccc3c(c2)N(CC2CC2)C(=O)CO3)ccn1 [Example 67, 6-(2-Amino-4-(2-methylpyridin-4-yl)-1H-imidazol-5-yl)-4-(cyclopropylmethyl)-2H-benzo[b][1,4]oxazin-3(4H)-one] |
| > 100 | 1 to 10 (≈ 0.335 to 3.35 µg/mL) | > 100 | 1 to 10 (≈ 0.335 to 3.35 µg/mL) | > 100 | > 100 | 10 to 100 (≈ 3.35 to 33.5 µg/mL) |  | Cc1cc(-c2[nH]c(N(C)C)nc2-c2ccc3c(c2)NCCO3)ccn1 [Example 79, 4-(3,4-Dihydro-2H-benzo[b][1,4]oxazin-6-yl)-N,N-dimethyl-5-(2-methylpyridin-4-yl)-1H-imidazol-2-amine] |
| 10 to 100 (≈ 4.09 to 40.9 µg/mL) | 1 to 10 (≈ 0.409 to 4.09 µg/mL) | > 100 | ≤ 1 | > 100 | > 100 | 1 to 10 (≈ 0.409 to 4.09 µg/mL) |  | Cc1cc(-c2nc(N)[nH]c2-c2ccc3c(c2)N(CCOCCO)C(=O)CO3)ccn1 [Example 70, 6-(2-Amino-4-(2-methylpyridin-4-yl)-1H-imidazol-5-yl)-4-(2-(2-hydroxyethoxy)ethyl)-2H-benzo[b][1,4]oxazin-3(4H)-one] |
